In brackets after ≈: the same amount, converted by molar mass. Read-outs that look alike come from different tables or passages of the source.

This passage reports IC50, MIC and IC90 results from US10800791B2, “Triazole ACC inhibitors and uses thereof” (Gilead Apollo, LLC, priority 2015, dated 2020).

The target in test [1] is human (hACC2) (Homo sapiens, UniProt O00763). Kind of test: In vitro ACC inhibition assay (ADP-Glo), hACC2. Type of test: biochemical. As to conditions: 5 nM ACC2, 20 μM ATP, 20 μM acetyl-CoA. Here is the method: The detailed procedure is as follows. […] 10 μL ADP glo reagent was added. […] 20 μL kinase detection reagent was added.
The test system of test [2] is C. albicans. The test is described as follows: Antifungal Activity Assay (broth microtiter MIC), C. albicans. It is filed as cell-based, Candida albicans. As to conditions: Candida albicans, ATCC90028, 48 h. The procedure, abridged:
(§1)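 Endpoint: lowest concentration visibly inhibiting growth relative to control after 48 h. Inoculum of 2.5×10^3 CFU/mL final in RPMI 1640+MOPS, prepared from overnight 35° C agar cultures; test compounds diluted in water to 128 μg/mL before plating.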

Test [3] has as its system C. parapsilosis. The test is described as follows: Antifungal Activity Assay (broth microtiter MIC), C. parapsilosis. Type of test: cell-based, Candida parapsilosis. To be noted: Lodderomyces parapsilosis, ATCC22019, 48 h. The procedure, abridged: as §1
In test [4] the test system is Botrtyis cinerea (Bc). The test is described as follows: Growth inhibition assay of fungal pathogens, Bc. To be noted: 48 h. Type of test: cell-based. The procedure, abridged: (§2)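 Pathogen growth in 17% V8 broth is measured by OD600 at 24 and 48 hours, after blank subtraction, in the presence of compound at 50, 10 and 2 ppm or 2, 0.4 and 0.08 ppm. Inhibition in percent comes from 48-hour readings against the DMSO control.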

Test [5] deals with Collectotrichum graminicola (Cg). Kind of test: Growth inhibition assay of fungal pathogens, Cg. Type of test: cell-based. As to conditions: 48 h. The gist of the method: as §2
Test [6] relates to Diplodia maydis (Dm). The test is described as follows: Growth inhibition assay of fungal pathogens, Dm. To be noted: Stenocarpella maydis, 48 h. It is filed as cell-based. The procedure, abridged:
as §2

Test [7] concerns Phytophthora capsici (Pc). Kind of test: Growth inhibition assay of fungal pathogens, Pc. Type of test: cell-based. As to conditions: 48 h. The gist of the method: as §2
For test [8], the system named is Rhizoctonia solani (Rs). The test is described as follows: Growth inhibition assay of fungal pathogens, Rs. It is filed as cell-based. As to conditions: 48 h.
Test [9] has as its system Septoria tritici (St). The test is described as follows: Growth inhibition assay of fungal pathogens, St. Type of test: cell-based. As to conditions: Zymoseptoria tritici, 48 h. The gist of the method: as §2

human (hACC2), sequence (O00763 whole entry): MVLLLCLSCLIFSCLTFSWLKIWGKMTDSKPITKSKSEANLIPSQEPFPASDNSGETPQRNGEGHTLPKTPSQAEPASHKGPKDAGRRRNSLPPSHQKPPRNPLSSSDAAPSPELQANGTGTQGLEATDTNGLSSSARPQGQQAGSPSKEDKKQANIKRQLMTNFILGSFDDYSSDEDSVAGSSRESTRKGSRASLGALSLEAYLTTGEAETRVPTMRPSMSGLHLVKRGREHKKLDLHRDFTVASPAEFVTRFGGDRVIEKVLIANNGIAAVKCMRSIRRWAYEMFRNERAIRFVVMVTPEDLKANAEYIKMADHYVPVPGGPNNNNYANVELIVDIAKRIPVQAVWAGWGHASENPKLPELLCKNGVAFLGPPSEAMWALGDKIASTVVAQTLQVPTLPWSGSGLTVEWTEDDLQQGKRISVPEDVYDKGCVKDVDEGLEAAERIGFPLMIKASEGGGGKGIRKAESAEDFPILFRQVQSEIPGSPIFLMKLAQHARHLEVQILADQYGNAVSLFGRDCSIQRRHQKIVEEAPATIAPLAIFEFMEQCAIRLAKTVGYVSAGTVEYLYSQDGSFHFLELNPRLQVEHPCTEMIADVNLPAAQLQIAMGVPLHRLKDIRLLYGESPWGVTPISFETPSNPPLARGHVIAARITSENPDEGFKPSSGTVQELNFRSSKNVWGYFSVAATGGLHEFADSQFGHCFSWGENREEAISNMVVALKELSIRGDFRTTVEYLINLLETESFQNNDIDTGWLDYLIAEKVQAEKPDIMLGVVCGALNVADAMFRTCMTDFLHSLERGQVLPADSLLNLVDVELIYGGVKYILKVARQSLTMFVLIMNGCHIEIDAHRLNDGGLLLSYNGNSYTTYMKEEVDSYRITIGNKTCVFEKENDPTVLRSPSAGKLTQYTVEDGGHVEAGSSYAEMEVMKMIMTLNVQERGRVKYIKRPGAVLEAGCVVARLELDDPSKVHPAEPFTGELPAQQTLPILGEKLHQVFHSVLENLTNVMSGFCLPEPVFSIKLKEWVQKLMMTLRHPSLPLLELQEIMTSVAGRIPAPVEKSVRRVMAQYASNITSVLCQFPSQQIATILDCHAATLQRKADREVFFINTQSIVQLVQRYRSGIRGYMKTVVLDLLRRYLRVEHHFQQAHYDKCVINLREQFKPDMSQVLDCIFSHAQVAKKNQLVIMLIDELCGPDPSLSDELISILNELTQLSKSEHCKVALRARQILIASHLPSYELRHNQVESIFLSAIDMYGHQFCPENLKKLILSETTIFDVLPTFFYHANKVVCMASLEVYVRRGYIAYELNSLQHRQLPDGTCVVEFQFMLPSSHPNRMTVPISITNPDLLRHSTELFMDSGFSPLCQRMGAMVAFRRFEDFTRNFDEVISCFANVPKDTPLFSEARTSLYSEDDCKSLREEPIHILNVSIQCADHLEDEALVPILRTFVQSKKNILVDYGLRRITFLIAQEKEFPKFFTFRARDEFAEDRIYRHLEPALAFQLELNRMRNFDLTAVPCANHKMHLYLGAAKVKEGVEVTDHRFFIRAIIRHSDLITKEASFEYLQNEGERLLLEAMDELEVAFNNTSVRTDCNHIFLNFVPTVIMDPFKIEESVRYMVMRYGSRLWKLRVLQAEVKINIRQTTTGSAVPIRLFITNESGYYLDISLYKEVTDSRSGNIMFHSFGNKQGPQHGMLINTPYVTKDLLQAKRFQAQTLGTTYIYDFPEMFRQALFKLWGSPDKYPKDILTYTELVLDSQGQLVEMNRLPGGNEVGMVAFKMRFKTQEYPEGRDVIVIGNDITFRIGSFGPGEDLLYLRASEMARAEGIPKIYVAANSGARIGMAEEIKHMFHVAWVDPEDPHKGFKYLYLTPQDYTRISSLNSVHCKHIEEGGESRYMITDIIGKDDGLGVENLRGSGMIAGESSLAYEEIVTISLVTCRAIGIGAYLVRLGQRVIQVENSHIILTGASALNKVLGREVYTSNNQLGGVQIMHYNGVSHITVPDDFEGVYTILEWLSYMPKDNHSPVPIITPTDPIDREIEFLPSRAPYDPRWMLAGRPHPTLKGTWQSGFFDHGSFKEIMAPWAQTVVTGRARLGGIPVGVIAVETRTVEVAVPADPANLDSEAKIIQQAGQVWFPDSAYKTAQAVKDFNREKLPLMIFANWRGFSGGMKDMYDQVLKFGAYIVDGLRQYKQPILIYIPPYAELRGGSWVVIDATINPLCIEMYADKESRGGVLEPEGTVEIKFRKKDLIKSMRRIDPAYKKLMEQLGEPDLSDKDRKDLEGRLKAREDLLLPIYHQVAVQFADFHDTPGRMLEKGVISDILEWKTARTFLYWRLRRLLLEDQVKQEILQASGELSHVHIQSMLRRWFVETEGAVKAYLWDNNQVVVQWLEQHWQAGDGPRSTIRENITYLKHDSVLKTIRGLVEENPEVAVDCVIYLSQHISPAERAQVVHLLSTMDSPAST

As for `CCNC(=O)C(C)(C)n1c(=O)c2c(C)c(-n3nccn3)sc2n(C[C@H](OC2CCOCC2)c2ccccc2OC)c1=O` [Compound I-15, (R)—N-ethyl-2-(1-(2-(2-methoxyphenyl)-2-((tetrahydro-2H-pyran-4-yl)oxy)ethyl)-5-methyl-2,4-dioxo-6-(2H-1,2,3-triazol-2-yl)-1,4-dihydro-thieno[2,3-d]pyrimidin-3(2H)-yl)-2-methylpropanamide], the IC50 (as a rule, the midpoint of a concentration-inhibition curve) in test [1] (Table 2a) fell in the range of 1 to 5 nM; in test [1] (Table 2b, additional results), 1 to 5 nM. In addition, the MIC (commonly the least concentration at which growth counts as inhibited) in [2] (Table 3a, ATCC 90028, 3 replicates, MIC recorded at 48 h, read-out: MIC, C. albicans ATCC 90028) was in the range of 0.25 to 1 µg/mL (≈ 0.419 to 1.68 µM); in test [2] (Table 3b (additional results), ATCC 90028, 3 replicates, MIC recorded at 48 h, read-out: MIC, C. albicans ATCC 90028), 0.25 to 1 µg/mL (≈ 0.419 to 1.68 µM); in test [3] (Table 3a, ATCC 22019, 3 replicates, MIC recorded at 48 h, read-out: MIC, C. parapsilosis ATCC 22019), 0.25 to 1 µg/mL (≈ 0.419 to 1.68 µM); in [3] (Table 3b (additional results), ATCC 22019, 3 replicates, MIC recorded at 48 h, read-out: MIC, C. parapsilosis ATCC 22019), 0.25 to 1 µg/mL (≈ 0.419 to 1.68 µM). Besides, the IC90 was 0.4 µg/mL (≈ 0.67 µM) in [4] (Botrtyis cinerea, growth inhibition at 48 hours vs 2% DMSO control, read-out: Concentration at 90% Inhibition Bc); 0.4 µg/mL (≈ 0.67 µM) in [4] (Botrtyis cinerea, growth inhibition vs 2% DMSO control at 48 hours, read-out: Concentration at 90% Inhibition Bc); 2 µg/mL (≈ 3.35 µM) in [5] (Collectotrichum graminicola, growth inhibition at 48 hours vs 2% DMSO control, read-out: Concentration at 90% Inhibition Cg); 10 µg/mL (≈ 16.8 µM) in [5] (Collectotrichum graminicola, growth inhibition vs 2% DMSO control at 48 hours, read-out: Concentration at 90% Inhibition Cg); 10 µg/mL (≈ 16.8 µM) in test [6] (Diplodia maydis, growth inhibition at 48 hours vs 2% DMSO control, read-out: Concentration at 90% Inhibition Dm); over 50 µg/mL in test [6] (Diplodia maydis, growth inhibition vs 2% DMSO control at 48 hours, read-out: Concentration at 90% Inhibition Dm). Besides, the IC90 in test [7] (growth inhibition at 48 hours vs 2% DMSO control, read-out: Concentration at 90% Inhibition Pc) is over 50 µg/mL; in test [7] (growth inhibition vs 2% DMSO control at 48 hours, read-out: Concentration at 90% Inhibition Pc) it was over 50 µg/mL; in [8] (mycelial plugs, growth inhibition at 48 hours vs 2% DMSO control, read-out: Concentration at 90% Inhibition Rs), 10 µg/mL (≈ 16.8 µM); in test [8] (mycelial plugs, growth inhibition vs 2% DMSO control at 48 hours, read-out: Concentration at 90% Inhibition Rs), over 50 µg/mL; in test [9] (Septoria tritici, growth inhibition at 48 hours vs 2% DMSO control, read-out: Concentration at 90% Inhibition St) it was over 50 µg/mL; in [9] (Septoria tritici, growth inhibition vs 2% DMSO control at 48 hours, read-out: Concentration at 90% Inhibition St), over 50 µg/mL.

Regarding `COc1ccccc1[C@H](Cn1c(=O)n(C(C)(C)C(=O)N2CC(O)C2)c(=O)c2c(C)c(-n3nccn3)sc21)OC1CCOCC1` [Compound I-19, (R)-3-(1-(3-hydroxyazetidin-1-yl)-2-methyl-1-oxopropan-2-yl)-1-(2-(2-methoxyphenyl)-2-((tetrahydro-2H-pyran-4-yl)oxy)ethyl)-5-methyl-6-(2H-1,2,3-triazol-2-yl)thieno[2,3-d]pyrimidine-2,4(1H,3H)-dione], the 50% inhibitory concentration (IC50) was in the range of 10 to 40 nM in [1] (Table 2a) and 10 to 40 nM in [1] (Table 2b, additional results). Besides, the MIC was in the range of 2.1 to 4 µg/mL (≈ 3.36 to 6.4 µM) in [2] (read-out: MIC, C. albicans ATCC 90028, Table 3a, 3 replicates, MIC recorded at 48 h); 1.01 to 2 µg/mL (≈ 1.62 to 3.2 µM) in test [2] (read-out: MIC, C. albicans ATCC 90028, Table 3b (additional results), 3 replicates, MIC recorded at 48 h); 2.1 to 4 µg/mL (≈ 3.36 to 6.4 µM) in test [3] (read-out: MIC, C. parapsilosis ATCC 22019, Table 3a, 3 replicates, MIC recorded at 48 h); 1.01 to 2 µg/mL (≈ 1.62 to 3.2 µM) in [3] (read-out: MIC, C. parapsilosis ATCC 22019, Table 3b (additional results), 3 replicates, MIC recorded at 48 h). Further, the IC90 in [4] (read-out: Concentration at 90% Inhibition Bc, Botrtyis cinerea, growth inhibition at 48 hours vs 2% DMSO control) was 10 µg/mL (≈ 16 µM); in [4] (read-out: Concentration at 90% Inhibition Bc, Botrtyis cinerea, growth inhibition vs 2% DMSO control at 48 hours), over 50 µg/mL; in test [5] (read-out: Concentration at 90% Inhibition Cg, Collectotrichum graminicola, growth inhibition at 48 hours vs 2% DMSO control), over 50 µg/mL; in [5] (read-out: Concentration at 90% Inhibition Cg, Collectotrichum graminicola, growth inhibition vs 2% DMSO control at 48 hours), over 50 µg/mL; in test [6] (read-out: Concentration at 90% Inhibition Dm, Diplodia maydis, growth inhibition at 48 hours vs 2% DMSO control), over 50 µg/mL; in [6] (read-out: Concentration at 90% Inhibition Dm, Diplodia maydis, growth inhibition vs 2% DMSO control at 48 hours), over 50 µg/mL. Also, the IC90 in test [7] (read-out: Concentration at 90% Inhibition Pc, Phytophthora capsici, growth inhibition at 48 hours vs 2% DMSO control) is over 50 µg/mL; in [7] (read-out: Concentration at 90% Inhibition Pc, Phytophthora capsici, growth inhibition vs 2% DMSO control at 48 hours) it was over 50 µg/mL; in [8] (read-out: Concentration at 90% Inhibition Rs, Rhizoctonia solani, mycelial plugs, growth inhibition at 48 hours vs 2% DMSO control) it was 10 µg/mL (≈ 16 µM); in test [8] (read-out: Concentration at 90% Inhibition Rs, Rhizoctonia solani, mycelial plugs, growth inhibition vs 2% DMSO control at 48 hours), over 50 µg/mL; in [9] (read-out: Concentration at 90% Inhibition St, Septoria tritici, growth inhibition at 48 hours vs 2% DMSO control), over 50 µg/mL; in [9] (read-out: Concentration at 90% Inhibition St, Septoria tritici, growth inhibition vs 2% DMSO control at 48 hours) it was over 50 µg/mL.
